Experiments:
[1] = test system: Swiss CD-1 mice; assay: Open field test: center vs. periphery (anxiety-like behavior); format: in vivo; settings: for acute anxiogenic effect (time in center of open field): 2.5, 10 and 25 mg kg−1 i.p., acute administration
Method: (§1) Male Swiss CD-1 mice (Janvier, Le Genest, France) weighing 30–35 g (6–8 weeks old) were randomly assigned to an experimental group. The animals were housed (seven per cage) in polycarbonate cages with wood-derived bedding, in temperature-controlled conditions (22 ± 1 °C) under a 12 h light/dark cycle and had ad libitum access to food (standard laboratory diet, Panlab SL, Barcelona, Spain) and drinking water. All animal care and experimental protocols in this study were approved by the Animal Ethics Committee of the University of Barcelona under the supervision of the Autonomous Government of Catalonia and are in accordance with the guidelines of the European Community Council (2010/63/EU), as amended by Regulation (EU) 2019/1010. Efforts were made to minimize animal use and suffering. All studies involving animals comply with the ARRIVE guidelines. The animals were supervised before and throughout the study, immediately after injection, and during the behavioral experiment as well as 24 h after injection, and different parameters were visually evaluated for humane endpoints, such as abnormal posture, greater loss than 20%, self-mutilations, and strange vocalizations.
Open-field experiments are straight-forward tests that evaluate the animals’ activity in response to novelty (or anxiogenic environment) and pharmacological treatments. Each animal was placed into the center of an open field arena, with sufficient height to prevent the animals from escaping (25 cm length × 25 cm width × 40 cm height), and the time spent (in seconds) in the center (8 × 8 cm) or the periphery of the arena was monitored for 60 min (Smart 3.0 Panlab, Barcelona, Spain).
(§2) Data were expressed as mean ± SEM. […] High ratios indicate greater selectivity for DAT.

[2] = molecular target: T1, hDAT (Homo sapiens, UniProt Q01959); assay: Transporter binding assay, [3H]WIN35,428 displacement in HEK293 membranes; parameters: expressed in transfected cells; settings: for hDAT/hSERT Affinity Ratio: ratio of binding affinities at hDAT and hSERT
T1 sequence (Q01959 whole entry): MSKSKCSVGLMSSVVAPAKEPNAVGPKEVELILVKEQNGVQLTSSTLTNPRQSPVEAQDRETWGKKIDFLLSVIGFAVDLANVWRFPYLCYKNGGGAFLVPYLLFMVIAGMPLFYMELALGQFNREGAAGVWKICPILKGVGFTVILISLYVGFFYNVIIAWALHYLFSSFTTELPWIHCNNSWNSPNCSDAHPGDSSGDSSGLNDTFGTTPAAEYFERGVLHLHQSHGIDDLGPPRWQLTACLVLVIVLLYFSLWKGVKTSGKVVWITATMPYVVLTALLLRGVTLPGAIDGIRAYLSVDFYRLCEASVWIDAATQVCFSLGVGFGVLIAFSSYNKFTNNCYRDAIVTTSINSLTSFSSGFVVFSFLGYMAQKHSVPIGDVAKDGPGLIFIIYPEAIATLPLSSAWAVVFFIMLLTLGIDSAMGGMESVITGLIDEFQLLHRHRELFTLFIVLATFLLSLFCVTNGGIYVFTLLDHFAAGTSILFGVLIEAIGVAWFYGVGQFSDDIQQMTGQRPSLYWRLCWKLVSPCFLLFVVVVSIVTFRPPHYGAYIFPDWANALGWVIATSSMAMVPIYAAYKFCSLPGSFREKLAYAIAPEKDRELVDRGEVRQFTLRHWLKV
Method: (§3) To prepare membranes, HEK293 cells expressing monoamine transporters were harvested from 80–90% confluent dishes. In short, cells were washed with ice-cold phosphate buffered saline (PBS) twice. An extra 5 mL of PBS was added, and cells were mechanically detached using a plastic scraper and subsequently pelleted by centrifugation (400× g for 10 min at 4 °C). The resulting pellet was resuspended in hypotonic HME buffer (20 mM HEPES NaOH, 1 mM EDTA, 2 mM MgCl2; pH 7.4) and then subjected to two freeze-thaw cycles in liquid nitrogen and homogenization through sonication at 4 °C. Membranes were collected by centrifugation (40,000× g for 30 min at 4 °C) and resuspended in an appropriate volume of HME buffer. Protein concentration was determined using the Bio-Rad Protein Reagent (Bio Rad Laboratories, Hercules, CA, USA). Membrane preparations were kept at −80 °C.
(hSERT assay, final concentration 3 nM)) diluted in the corresponding reaction buffer, 15 µg of membranes in 100 µL of reaction buffer, and 125 µL of the tested drug dilution. […] This non-specific binding also allows subtracting the binding to other components such as the microfiber filters or membrane lipids from the total binding values. Incubation was performed for 1 h at 22 °C. […] The filters were then placed into vials and scintillation cocktail was added. The trapped radioactivity was quantified by liquid scintillation counting. Specific binding of each drug to the transporter was defined as the difference between total binding (binding buffer in absence of drug) and non-specific binding.
Data were expressed as mean ± SEM.

[3] = molecular target: T1, hDAT; assay: Uptake inhibition assay, [3H]MPP+ uptake in transfected HEK293 cells; settings: for potency at inhibiting DAT relative to cocaine: [3H]MPP+ uptake at hDAT, vs cocaine
[4] = test system: Swiss CD-1 mice; assay: Conditioned place preference (CPP); format: in vivo; settings: for CPP rewarding effects vs saline: highest dose 25 mg kg−1 i.p.
Method: as §1
A place conditioning paradigm was used to determine the potential of the seven α-PVP derivatives to induce rewarding effects. The apparatus that is used for this test consists of two compartments, with differences in tactile and visual cues, communicated by a central corridor. Conditioned place preference (CPP) was performed as described by. Briefly, CPP was performed in three phases: preconditioning test and conditioning and post-conditioning test. During the preconditioning phase, mice had free access to both compartments during 15 min, and the time spent in each compartment was recorded and monitored (Smart 3.0 Panlab, Barcelona, Spain). During the conditioning phase (8 sessions), access to the corridor was closed, and mice received an i.p. injection of the corresponding α-PVP derivative and were immediately placed into one of the compartments for 20 min. The doses tested are in accordance with the ones used in the HLA experiment. On the alternative session, mice were placed for 20 min in the other compartment after receiving a saline i.p. injection. Mice in the control group received a saline injection in every session. The compartment and session in which mice received the drug was randomized. On the test day (post-conditioning phase), the same conditions as in the pre-conditioning phase applied. A preference score, expressed in seconds, was calculated as the difference between the time spent in the drug-paired compartment in the post-conditioning test minus the time spent in the preconditioning phase.
as §2

[5] = molecular target: T2, hSERT (Homo sapiens, UniProt P31645); assay: Transporter binding assay, [3H]imipramine displacement in HEK293 membranes; parameters: expressed in transfected cells
T2 sequence (P31645 whole entry): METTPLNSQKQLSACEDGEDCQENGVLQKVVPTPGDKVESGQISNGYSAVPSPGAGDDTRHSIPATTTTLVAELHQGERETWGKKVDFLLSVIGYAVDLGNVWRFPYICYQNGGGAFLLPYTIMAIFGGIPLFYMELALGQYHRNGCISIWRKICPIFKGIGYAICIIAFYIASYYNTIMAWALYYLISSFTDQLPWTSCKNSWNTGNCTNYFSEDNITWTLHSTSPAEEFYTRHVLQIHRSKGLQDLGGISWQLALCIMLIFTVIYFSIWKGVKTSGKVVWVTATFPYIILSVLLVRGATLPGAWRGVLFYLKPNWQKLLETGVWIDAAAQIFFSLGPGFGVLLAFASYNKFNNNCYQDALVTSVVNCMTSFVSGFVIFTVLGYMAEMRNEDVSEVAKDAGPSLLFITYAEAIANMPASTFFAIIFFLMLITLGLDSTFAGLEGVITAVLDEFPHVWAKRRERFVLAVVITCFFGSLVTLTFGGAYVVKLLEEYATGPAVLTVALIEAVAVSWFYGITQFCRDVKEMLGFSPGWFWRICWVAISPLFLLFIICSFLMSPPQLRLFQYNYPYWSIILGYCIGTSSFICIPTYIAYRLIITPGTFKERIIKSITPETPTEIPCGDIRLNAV
Method: as §3
This non-specific binding also allows subtracting the binding to other components such as the microfiber filters or membrane lipids from the total binding values. Incubation was performed for 1 h at 22 °C. […] The filters were then placed into vials and scintillation cocktail was added. The trapped radioactivity was quantified by liquid scintillation counting. Specific binding of each drug to the transporter was defined as the difference between total binding (binding buffer in absence of drug) and non-specific binding.
as §2

[6] = molecular target: T2, hSERT; assay: Uptake inhibition assay, [3H]5-HT uptake in transfected HEK293 cells
[7] = test system: Swiss CD-1 mice; assay: Horizontal locomotor activity (HLA); format: in vivo; settings: for HLA vs saline group: 2.5 mg kg−1 i.p., distance travelled in 60 min; for duration of the increase in locomotor activity: medium dose 10 mg kg−1 i.p., time course
Method: as §1
A habituation phase was performed to reduce the novelty and stress associated with handling and injection. In this habituation phase, all mice received, for two consecutive days, an intraperitoneal (i.p.) saline injection and were then placed into a black Plexiglass open field arena (25 × 25 × 40 cm) under low-light conditions and white noise for 30 min. On the test day, the horizontal locomotor activity (HLA) produced by the tested cathinones was measured as described by, with minor modifications. Briefly, the animals received the corresponding i.p. injection (saline 5 mL kg^−1, 3-F-α-PVP, 4-F-α-PVP, 3-Cl-α-PVP, 4-Cl-α-PVP, 3,4-Cl2-α-PVP, 3-Br-α-PVP or 4-Br-α-PVP 2.5, 10 or 25 mg kg^−1 and were immediately placed in the open field arena with the same conditions of light and noise. HLA was video-monitored for 1 h, and their total travelled distance (in cm) was measured using a specific tracking software (Smart 3.0 Panlab, Barcelona, Spain).
as §2

With `CCCC(C(=O)c1ccc(Cl)c(Cl)c1)N1CCCC1` (stereo not drawn) [3,4-Cl-α-PVP, 3,4-Dichloro-α-Pyrrolidinopentiophenone] the “acute anxiogenic effect (time in center of open field)” value (from here on “acute anxiogenic effect”) [1] was “anxiogenic effect”, the Ki [2] was 11 nM and the “hDAT/hSERT Affinity Ratio” value [2] was 462. For the same molecule, the IC50 [3] was 266 nM, the “hDAT/hSERT Inhibition Ratio” value [3] was 47 and the “CPP rewarding effects vs saline” value [4] was “significant increase of the rewarding effects”. The Ki [5] was 4990 nM and the IC50 [6] was 12700 nM.
With `CCCC(C(=O)c1cccc(Br)c1)N1CCCC1` (stereo not drawn) [3-Br-α-PVP, 3-Bromo-α-Pyrrolidinopentiophenone] the “acute anxiogenic effect” value [1] was “anxiogenic effect”, the Ki [2] was 12 nM and the “hDAT/hSERT Affinity Ratio” value [2] was 470. The IC50 [3] was 117 nM, the “potency at inhibiting DAT relative to cocaine” value [3] was 2 fold and the “hDAT/hSERT Inhibition Ratio” value [3] was 341. The “CPP rewarding effects vs saline” value [4] was “significant increase of the rewarding effects”, the “CPP rewarding properties vs saline” value ([4]; lowest dose 2.5 mg kg−1 i.p.) was “did not show rewarding properties” and the Ki [5] was 5600 nM. The IC50 [6] was 40000 nM.
In the case of `CCCC(C(=O)c1cccc(Cl)c1)N1CCCC1` (stereo not drawn) [3-Cl-α-PVP, 3-Chloro-α-Pyrrolidinopentiophenone], the “time in center of open field at the lowest dose” value ([1]; 2.5 mg kg−1 i.p.) is reported as “anxiogenic effects”, the “acute anxiogenic effect” value [1] is reported as “anxiogenic effect” and the “HLA vs saline group” value [7] is reported as “significant effect”. For the same molecule, the “HLA dose-response at the highest dose” value ([7]; 25 mg kg−1 i.p.) was “ceiling effect”, the Ki [2] was 13 nM and the “hDAT/hSERT Affinity Ratio” value [2] was 1234. For the same molecule, the IC50 [3] was 349 nM, the “hDAT/hSERT Inhibition Ratio” value [3] was 95 and the “CPP rewarding effects vs saline” value [4] was “did not induce significant rewarding effects”. For the same molecule, the Ki [5] was 16400 nM and the IC50 [6] was 33300 nM.
`CCCC(C(=O)c1cccc(F)c1)N1CCCC1` (stereo not drawn) [3-F-α-PVP, 3-Fluoro-α-Pyrrolidinopentiophenone] was tested, and the “acute anxiogenic effect” value [1] was “anxiogenic effect”, the “HLA vs saline group” value [7] was “significant effect” and the Ki [2] was 14 nM. For the same molecule, the “hDAT/hSERT Affinity Ratio” value [2] was 4540, the IC50 [3] was 132 nM and the “potency at inhibiting DAT relative to cocaine” value [3] was 2 fold. The “hDAT/hSERT Inhibition Ratio” value [3] was 1819, the Ki [5] was 63500 nM and the IC50 [6] was > 100000 nM.
In the case of `CCCC(C(=O)c1ccc(Br)cc1)N1CCCC1` (stereo not drawn) [4-Br-α-PVP, 4-Bromo-α-Pyrrolidinopentiophenone], the “acute anxiogenic effect” value [1] is reported as “did not cause acute anxiogenic effects”, the “duration of the increase in locomotor activity” value [7] is reported as < 60 min and the Ki [2] is reported as 24 nM. For the same molecule, the “hDAT/hSERT Affinity Ratio” value [2] was 52, the IC50 [3] was 156 nM and the “potency at inhibiting DAT relative to cocaine” value [3] was 2 fold. For the same molecule, the “hDAT/hSERT Inhibition Ratio” value [3] was 148, the “CPP rewarding effects vs saline” value [4] was “significant increase of the rewarding effects” and the Ki [5] was 1250 nM. It also gave an IC50 [6] of 23100 nM.
In the case of `CCCC(C(=O)c1ccc(Cl)cc1)N1CCCC1` (stereo not drawn) [4-Cl-α-PVP, 4-Chloro-α-Pyrrolidinopentiophenone], the “acute anxiogenic effect” value [1] is reported as “anxiogenic effect”, the “duration of the increase in locomotor activity” value [7] is reported as < 60 min and the Ki [2] is reported as 16 nM. The “hDAT/hSERT Affinity Ratio” value [2] was 478, the IC50 [3] was 391 nM and the “hDAT/hSERT Inhibition Ratio” value [3] was 38. The “CPP rewarding effects vs saline” value [4] was “did not induce significant rewarding effects”, the Ki [5] was 7900 nM and the IC50 [6] was 15200 nM.
With `CCCC(C(=O)c1ccc(F)cc1)N1CCCC1` (stereo not drawn) [4-F-α-PVP, 4-Fluoro-α-Pyrrolidinopentiophenone] the “time in center of open field at the highest dose” value ([1]; 25 mg kg−1 i.p., effect only at this dose) was “decrease in the time spent in the center”, the “acute anxiogenic effect” value [1] was “anxiogenic effect” and the Ki [2] was 49 nM. For the same molecule, the “hDAT/hSERT Affinity Ratio” value [2] was 1173, the IC50 [3] was 154 nM and the “potency at inhibiting DAT relative to cocaine” value [3] was 2 fold. For the same molecule, the “hDAT/hSERT Inhibition Ratio” value [3] was 1366, the “CPP rewarding effects vs saline” value [4] was “significant increase of the rewarding effects” and the Ki [5] was 57900 nM. The IC50 [6] was > 100000 nM.
`CCCC(C(=O)c1ccccc1)N1CCCC1` (stereo not drawn) [α-PVP, α-Pyrrolidinopentiophenone] was tested, and the Ki [2] was 17 nM, the “hDAT/hSERT Affinity Ratio” value [2] was 8514 and the IC50 [3] was 129 nM. For the same molecule, the “hDAT/hSERT Inhibition Ratio” value [3] was 3418, the Ki [5] was > 100000 nM and the IC50 [6] was > 100000 nM.

— publication PMC8876800, “Neuropsychopharmacology of Emerging Drugs of Abuse: meta- and para-Halogen-Ring-Substituted α-PVP (“flakka”) Derivatives” (International Journal of Molecular Sciences, 2022)
